Reference: publication PMC10252989, “Significance of Astragaloside IV from the Roots of Astragalus mongholicus as an Acetylcholinesterase Inhibitor—From the Computational and Biomimetic Analyses to the In Vitro and In Vivo Studies of Safety” (International Journal of Molecular Sciences, 2023)

Assays:
[1] = Biomimetic HPLC lipophilicity determination, IAM column; type: physicochemical; conditions: for s (slope of Soczewiński-Wachtmeister equation): ACN-phosphate buffer pH 7.4; for logkw: ACN-phosphate buffer pH 7.4, retention factor extrapolated to pure water
Excerpt: (§1) To determine lipophilicity of the tested astragalosides, the biomimetic-High Performance Liquid Chromatography (HPLC) systems with a cholesterol-bound (CHOL) stationary phase as well as the Immobilized Artificial Membrane (IAM) column were used. These stationary phases have pseudomembrane properties and therefore are widely applied in chromatographic practice to determine lipophilicity of various groups of compounds, including newly synthesized ones.
(§2) Based on the Soczewiński–Wachtmeister Equation (1), the logarithms of retention factors extrapolated to pure water (logkw) values were calculated. These values can be considered as an alternative to the n-octanol/water partition coefficient recognized as the lipophilicity descriptor [31]. logk = logkw − sφ(1) where logk is the logarithm of the retention factor in the mixed effluent systems; φ is the volume fraction of organic modifier in the mobile phase; s is the slope characteristic of a given solute in the chromatographic system.
(§3) The Shimadzu Vp liquid chromatographic system (Shimadzu, Kyoto, Japan) equipped with an LC 10AT pump, an SPD 10A UV-Vis detector, an SCL 10A system controller, a CTO-10 AS chromatographic oven and a Rheodyne injector valve with a 20 µL loop was applied in the HPLC measurements.
(§4) The solutions of the isolated A IV as well as pharmacopoeial standards of A I–A III were prepared in methanol (Merck, Darmstadt, Germany; p.a.) at a concentration of 1 mg/mL. […] The optimization process of the chromatographic separation was made before the experiment. The flow rate of the mobile phases was established to be 1 mL/min and the temperature was set at 20 °C. The tested compounds were detected with UV light at λ = 203 nm.
(§5) The IAM.PC.DD2 column (IAM; 100 × 4.6 mm i.d., 10 µm; Regis Technologies, Morton Grove, IL, USA) and cholesterol-bonded (CHOL; Cosmosil; 75 × 2 mm i.d., 2.5 µm; Genore, Warsaw, Poland) were used as the stationary phase while the buffered solutions of acetonitrile (ACN) were used as mobile phases. In each measurement the composition of the mobile phases was: 0.3; 0.4; 0.5; 0.6 v/v ACN-buffer. The buffer was prepared from solutions of both Na2HPO4 (0.02 mol/dm^3) and citric acid (0.01 mol/dm^3).
(§6) The dead-time values were measured from the citric acid peaks. All the reported logarithms of the retention factors were measured three times.

[2] = target: acetylcholinesterase (AChE) enzyme (Homo sapiens, UniProt P22303); assay: TLC bioautography assay for inhibition of acetylcholinesterase; type: biochemical; conditions: amount of compound per spot
Experimental: In this study, the reference compounds of astragalosides II (A II), III (A III) and IV (A IV) at different concentrations were injected into the normal phase TLC plate covered with silica gel. Each experiment was repeated three times and the average values of the obtained peak areas corresponding to different injections of pure astragalosides were taken for the calculation of IC50 values of the saponins. For the three astragalosides: II, III and IV the following calibration curve equations were obtained: y = 70,773,628.9063x − 62,644.2995 (R^2 = 0.9732), y = 33,106,972.8125x − 67,429.4097 (R^2 = 0.9771), and y = 48,308,195.3125x + 3538.3021 (R^2 = 0.9981), respectively.
The TLC-bioautography method was used to determine the IC50 values of the tested saponins. Owing to the application of this technique, bright spots of active compounds were registered against the dark background. The TLC chromatogram was obtained on aluminium-covered normal phase TLC plates (Merck, Darmstadt, Germany, silica gel 60 F254).
To calculate the strength of the astragalosides, the IC50 values were determined for astragalosides II, III, and IV. For this purpose, 1 mg/mL solutions of all pure compounds were sprayed on the TLC plate using the Camag Linomat 5 (Muttenz, Switzerland) with the decreasing volumes in the range of 0.002–0.008 mg of compounds per spotevery 1 cm.
Later the TLC plate was subjected to the TLC-bioautography assay towards inhibitory properties against the AChE enzymeas described previously. Briefly, first the TLC plates were sprayed with asolution of 30 mg/20 mL of 1-naphtyl acetate. […] The chromatogram was analysed by the WinCats (v. 1.4, Camag) program and the peak areas of every spot were determined. Based on the numerical values obtained corresponding to the intensity of discoloured zones measured with the peak areas, the calibration curves were determined and the IC50 values were calculated as half of the peak area from the biggest spot that stayedwithin the linearity range area.

[3] = Biomimetic HPLC lipophilicity determination, cholesterol-bound column; type: physicochemical; conditions: CHOL column; for s (slope of Soczewiński-Wachtmeister equation): ACN-phosphate buffer pH 7.4; for logkw: ACN-phosphate buffer pH 7.4, retention factor extrapolated to pure water
Excerpt: as §1, §2, §3, §4, §5, §6

[4] = test system: zebrafish (Danio rerio) embryos; assay: Zebrafish embryo acute toxicity test (OECD Test No. 236); type: in vivo
Experimental: Zebrafish (Danio rerio) embryos were obtained from the Experimental Medicine Centre, Medical University of Lublin, Poland. The animals were kept in an incubator under the appropriate environmental conditions (28.5 ± 0.5 °C, light/dark cycle: 14/10 h) up to 96 h post-fertilization (hpf). For the studies, the National Institutes of Health Guide for the Care and Use of Laboratory Animals (Directive 2010/63/EU) was applied. Thus, for the yolk-feeding larvae up to 120 hpf ethical approval is not required. Nevertheless, all attempts were made to minimize the number of animals and their suffering. Immediately after the experiments, the larval zebrafish were euthanized in […] tricaine solution.
In order to assess the effect of astragaloside IV on the developing organism, the zebrafish embryo acute toxicity test was carried out according to the Organization for Economic Cooperation and Development recommendation for the testing of chemicals (Test No. 236) as described previously. One hour after fertilization, viable, perfectly spherical and completely transparent embryos were selected and transferred to 12 well plates (Sarstedt, Germany). The embryos were randomly divided into control and experimental groups. The embryos were kept in each well until the appropriate stage of development was reached of 96 hpf. Two batches of embryos (3 wells per batch, n = 5–6 per well) were kept in 3 mL of zebrafish E3 medium without treatment, i.e., the control group and that was supplemented with 25 µg/mL of astragaloside IV, i.e., the experimental group. Mortality was assessed after 23, 47, 71 and 95 h of exposition. Hatchability was evaluated after 71 and 95 h of exposition. Morphological abnormalities were scored after 95 h of exposition: heartbeat, heart oedema, yolk sac utilization/necrosis, jaw development, eye size, body axis and haemorrhage. Furthermore, to assess muscle function and performance, the touch-evoked response was performed by slight touching of the tail with metal tweezers. The criteria for the larval response were as follows: absent, decreased and normal, as described in detail in our previous paper.
The obtained data were pooled together. The Chi-squared test or the Fisher’s exact test was used for statistical purposes.

[5] = post-mortem brain tissues of mice; cited from earlier work
[6] = test system: SH-SY5Y human neuroblastoma cell line; assay: In vitro cytotoxicity test (MTT); type: cell-based; conditions: for cell viability versus control group (saline): 24 h, MTT
Experimental: The SH-SY5Y human neuroblastoma cell lines (ATCC CRL-2266) were maintained in a1:1 mixture of Eagle’s Minimum Essential Medium and F12 Medium, supplemented with 10% (v/v) of foetal bovine serum. The cells were grown at 37 °C in a humidified incubator with 5% CO2.
The viability of SH-SY5Y cells was evaluated based on the reduction of the yellow tetrazolium salt (3-(4,5-dimethylthiazol-2-yl)-2,5-diphenyltetrazolium bromide or MTT) to the purple formazan crystals by the metabolically active cells. The cells were seeded onto the 96-well plates at the density of 10,000 cells/well, grown overnight and treated with astragaloside IV at 6, 12.5 or 25 μg/mL. Following 24 h of incubation the medium was replaced with 200 µL of fresh medium containing MTT (final concentration 0.5 mg/mL) and the cells were incubated for a further 4 h at 37 °C. The precipitated formazan was dissolved in 100 µL DMSO and the absorbance of the samples was measured at λ = 540 nm. The mean absorbance measured for the control cells, treated with the solvent (saline), was set to 100% cellular viability and used to calculate the percent of viable cells under each experimental condition.

acetylcholinesterase (AChE) enzyme, sequence (P22303 32-614): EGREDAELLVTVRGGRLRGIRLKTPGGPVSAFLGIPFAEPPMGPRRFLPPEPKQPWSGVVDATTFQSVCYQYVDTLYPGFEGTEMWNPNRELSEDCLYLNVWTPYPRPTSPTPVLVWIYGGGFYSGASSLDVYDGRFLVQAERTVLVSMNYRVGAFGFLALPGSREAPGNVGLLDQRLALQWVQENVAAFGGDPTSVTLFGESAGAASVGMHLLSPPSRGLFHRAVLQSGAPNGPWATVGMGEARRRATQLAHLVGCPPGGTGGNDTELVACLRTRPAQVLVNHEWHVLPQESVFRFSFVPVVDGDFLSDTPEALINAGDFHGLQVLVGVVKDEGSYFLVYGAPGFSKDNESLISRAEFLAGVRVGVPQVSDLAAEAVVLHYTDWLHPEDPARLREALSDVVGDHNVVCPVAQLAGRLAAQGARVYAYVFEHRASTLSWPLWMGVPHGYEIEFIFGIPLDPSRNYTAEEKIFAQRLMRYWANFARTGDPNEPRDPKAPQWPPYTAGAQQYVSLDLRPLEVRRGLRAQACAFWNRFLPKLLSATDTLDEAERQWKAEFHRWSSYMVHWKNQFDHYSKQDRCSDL

Row | Structure (SMILES) | s (slope of Soczewiński-Wachtmeister equation) [1] | logkw [1] | IC50 [2] [mg] | s (slope of Soczewiński-Wachtmeister equation) [3] | logkw [3] | mortality rate versus control ([4]; 25 µg/mL, 1, 2, 3 and 4 dpf, p > 0.05) | larval hatchability ([4]; 25 µg/mL, 3- and 4-day-old fish, p > 0.05) | scored morphological abnormalities versus control ([4]; 25 µg/mL, 95 h exposition) | touch-evoked response ([4]; 25 µg/mL, 95 h exposition) | logBB [5] | cell viability versus control group (saline) ([6]; 25 μg/mL) | cell viability versus control group (saline) ([6]; 6 and 12.5 μg/mL) | decrease in cellular SH-SY5Y viability ([6]; all analysed conditions (6, 12.5, 25 μg/mL))
1 | CC(C)(O)[C@@H]1CC[C@](C)([C@H]2[C@@H](O)C[C@@]3(C)[C@@H]4C[C@H](O)[C@H]5C(C)(C)[C@@H](O[C@@H]6OC[C@@H](O)[C@H](O)[C@H]6O[C@@H]6O[C@H](CO)[C@@H](O)[C@H](O)[C@H]6O)CC[C@@]56C[C@@]46CC[C@]23C)O1 [A III, Astragaloside III] | 4.165 | 1.807 | 0.0033 | 5.681 | 2.627 |  |  |  |  |  |  |  | 
2 | CC(=O)OC1C(O)COC(OC2CCC34CC35CCC3(C)C(C6(C)CCC(C(C)(C)O)O6)C(O)CC3(C)C5CC(OC3OC(CO)C(O)C(O)C3O)C4C2(C)C)C1OC(C)=O (stereo not drawn) [A I, Astragaloside I] | 6.040 | 2.713 |  | 5.590 | 3.234 |  |  |  |  |  |  |  | 
3 | CC(=O)O[C@H]1[C@H](O[C@H]2CC[C@]34C[C@]35CC[C@]3(C)[C@@H]([C@@]6(C)CC[C@@H](C(C)(C)O)O6)[C@@H](O)C[C@@]3(C)[C@@H]5C[C@H](O[C@@H]3O[C@H](CO)[C@@H](O)[C@H](O)[C@H]3O)[C@H]4C2(C)C)OC[C@@H](O)[C@@H]1O [A II, Astragaloside II] | 4.715 | 2.104 | 0.00488 | 6.570 | 3.209 |  |  |  |  |  |  |  | 
4 | CC(C)(O)[C@@H]1CC[C@](C)([C@H]2[C@@H](O)C[C@@]3(C)[C@@H]4C[C@H](O[C@@H]5O[C@H](CO)[C@@H](O)[C@H](O)[C@H]5O)[C@H]5C(C)(C)[C@@H](O[C@@H]6OC[C@@H](O)[C@H](O)[C@H]6O)CC[C@@]56C[C@@]46CC[C@]23C)O1 [A IV, Astragaloside IV] | 3.965 | 1.727 | 0.00316 | 6.000 | 2.668 | no difference | did not affect | no difference | normal | 0.49 | slightly lower | slightly higher | no significant decrease
